Measurements as given in ChEMBL document CHEMBL3885881, “DrugMatrix”.

Species on record: Rattus norvegicus
Assay: DrugMatrix - Regimen: Daily Repeat
Type: toxicity, organism-based, Sprague-Dawley
Set-up: regimen Daily Repeat, gender Male, age 6-8 weeks
Details: in vivo, po, route oral GAVAGE, […]; for ABSOLUTE BASOPHIL / ABSOLUTE EOSINOPHIL / ABSOLUTE LYMPHOCYTE / ABSOLUTE MONOCYTE / ABSOLUTE SEGMENTED NEUTROPHIL / BASOPHIL / EOSINOPHIL / ERYTHROCYTE COUNT / HEMATOCRIT / HEMOGLOBIN / LEUKOCYTE COUNT / LYMPHOCYTE / MEAN CORPUSCULAR HEMOGLOBIN / MEAN CORPUSCULAR HEMOGLOBIN CONCENTRATION / MEAN CORPUSCULAR VOLUME / MONOCYTE / NEUTROPHIL / NUCLEATED RED BLOOD CELLS / PLATELET COUNT: tissue Blood; for ALANINE AMINOTRANSFERASE / ALBUMIN / ALKALINE PHOSPHATASE / ASPARTATE AMINOTRANSFERASE / BLOOD UREA NITROGEN / CARBON DIOXIDE / CHLORIDE / CHOLESTEROL / CREATINE PHOSPHOKINASE / CREATININE / GLUCOSE / LACTATE DEHYDROGENASE / LIPASE / PHOSPHORUS / POTASSIUM / SODIUM / TOTAL BILIRUBIN / TOTAL PROTEIN / URIC ACID: tissue Plasma
[1] = 1 mg/kg, 120 h, dose level Low, time 5 day
[2] = 14 mg/kg, 72 h, dose level High, time 3 day
[3] = 14 mg/kg, 120 h, dose level High, time 5 day

SMILES: CCOC(=O)C1=C(C)NC(C)=C(C(=O)OCC)C1c1ccccc1/C=C/C(=O)OC(C)(C)C [LACIDIPINE]
- ABSOLUTE BASOPHIL [1]: 0 CELLS/uL
- ABSOLUTE EOSINOPHIL [1]: 0 CELLS/uL
- ABSOLUTE LYMPHOCYTE [1]: 13674 CELLS/uL
- ABSOLUTE MONOCYTE [1]: 253 CELLS/uL
- ABSOLUTE SEGMENTED NEUTROPHIL [1]: 1206.33 CELLS/uL
- BASOPHIL [1]: 0%
- EOSINOPHIL [1]: 0%
- ERYTHROCYTE COUNT [1]: 6.05 x10E6/uL
- HEMATOCRIT [1]: 38.43%
- HEMOGLOBIN [1]: 15 G/DL
- LEUKOCYTE COUNT [1]: 15.13 x10E3/uL
- LYMPHOCYTE [1]: 90.33%
- MEAN CORPUSCULAR HEMOGLOBIN [1]: 24.8 pg
- MEAN CORPUSCULAR HEMOGLOBIN CONCENTRATION [1]: 39.07 G/DL
- MEAN CORPUSCULAR VOLUME [1]: 63.47 fL
- MONOCYTE [1]: 1.67%
- NEUTROPHIL [1]: 8%
- NUCLEATED RED BLOOD CELLS [1]: 0.33 /100WBC
- PLATELET COUNT [1]: 1182 x10E3/uL
- ALANINE AMINOTRANSFERASE [1]: 60.33 u/L
- ALBUMIN [1]: 4.13 G/DL
- ALKALINE PHOSPHATASE [1]: 378.33 u/L
- ASPARTATE AMINOTRANSFERASE [1]: 70.67 u/L
- BLOOD UREA NITROGEN [1]: 12.67 mg/dL
- CARBON DIOXIDE [1]: 30 mmol/L
- CHLORIDE [1]: 99.67 MEQ/L
- CHOLESTEROL [1]: 69 mg/dL
- CREATINE PHOSPHOKINASE [1]: 271.67 u/L
- CREATININE [1]: 0.17 mg/dL
- GLUCOSE [1]: 166.33 mg/dL
- LACTATE DEHYDROGENASE [1]: 125.67 u/L
- LIPASE [1]: 10 u/L
- PHOSPHORUS [1]: 10.93 mg/dL
- POTASSIUM [1]: 6.75 MEQ/L
- SODIUM [1]: 141.97 MEQ/L
- TOTAL BILIRUBIN [1]: 0.17 mg/dL
- TOTAL PROTEIN [1]: 5.83 G/DL
- URIC ACID [1]: 1.9 mg/dL
- ABSOLUTE BASOPHIL [2]: 0 CELLS/uL
- ABSOLUTE EOSINOPHIL [2]: 0 CELLS/uL
- ABSOLUTE LYMPHOCYTE [2]: 6598.33 CELLS/uL
- ABSOLUTE MONOCYTE [2]: 95.33 CELLS/uL
- ABSOLUTE SEGMENTED NEUTROPHIL [2]: 673 CELLS/uL
- BASOPHIL [2]: 0%
- EOSINOPHIL [2]: 0%
- ERYTHROCYTE COUNT [2]: 6.39 x10E6/uL
- HEMATOCRIT [2]: 38.67%
- HEMOGLOBIN [2]: 15.2 G/DL
- LEUKOCYTE COUNT [2]: 7.37 x10E3/uL
- LYMPHOCYTE [2]: 89.67%
- MEAN CORPUSCULAR HEMOGLOBIN [2]: 23.8 pg
- MEAN CORPUSCULAR HEMOGLOBIN CONCENTRATION [2]: 39.33 G/DL
- MEAN CORPUSCULAR VOLUME [2]: 60.53 fL
- MONOCYTE [2]: 1.33%
- NEUTROPHIL [2]: 9%
- NUCLEATED RED BLOOD CELLS [2]: 0.33 /100WBC
- PLATELET COUNT [2]: 1020.33 x10E3/uL
- ALANINE AMINOTRANSFERASE [2]: 81.67 u/L
- ALBUMIN [2]: 4 G/DL
- ALKALINE PHOSPHATASE [2]: 315.33 u/L
- ASPARTATE AMINOTRANSFERASE [2]: 94 u/L
- BLOOD UREA NITROGEN [2]: 9.33 mg/dL
- CARBON DIOXIDE [2]: 25 mmol/L
- CHLORIDE [2]: 94.33 MEQ/L
- CHOLESTEROL [2]: 62.33 mg/dL
- CREATINE PHOSPHOKINASE [2]: 287 u/L
- CREATININE [2]: 0.4 mg/dL
- GLUCOSE [2]: 140 mg/dL
- LACTATE DEHYDROGENASE [2]: 223.33 u/L
- LIPASE [2]: 9.67 u/L
- PHOSPHORUS [2]: 8.63 mg/dL
- POTASSIUM [2]: 4.28 MEQ/L
- SODIUM [2]: 137.47 MEQ/L
- TOTAL BILIRUBIN [2]: 0.2 mg/dL
- TOTAL PROTEIN [2]: 5.47 G/DL
- URIC ACID [2]: 0.53 mg/dL
- ABSOLUTE BASOPHIL [3]: 0 CELLS/uL
- ABSOLUTE EOSINOPHIL [3]: 59.67 CELLS/uL
- ABSOLUTE LYMPHOCYTE [3]: 14336 CELLS/uL
- ABSOLUTE MONOCYTE [3]: 190.33 CELLS/uL
- ABSOLUTE SEGMENTED NEUTROPHIL [3]: 2280.67 CELLS/uL
- BASOPHIL [3]: 0%
- EOSINOPHIL [3]: 0.33%
- ERYTHROCYTE COUNT [3]: 6.95 x10E6/uL
- HEMATOCRIT [3]: 41.6%
- HEMOGLOBIN [3]: 16.07 G/DL
- LEUKOCYTE COUNT [3]: 16.87 x10E3/uL
- LYMPHOCYTE [3]: 85.33%
- MEAN CORPUSCULAR HEMOGLOBIN [3]: 23.17 pg
- MEAN CORPUSCULAR HEMOGLOBIN CONCENTRATION [3]: 38.67 G/DL
- MEAN CORPUSCULAR VOLUME [3]: 59.9 fL
- MONOCYTE [3]: 1%
- NEUTROPHIL [3]: 13.33%
- NUCLEATED RED BLOOD CELLS [3]: 0 /100WBC
- PLATELET COUNT [3]: 1126 x10E3/uL
- ALANINE AMINOTRANSFERASE [3]: 90.33 u/L
- ALBUMIN [3]: 4.47 G/DL
- ALKALINE PHOSPHATASE [3]: 262.33 u/L
- ASPARTATE AMINOTRANSFERASE [3]: 95.67 u/L
- BLOOD UREA NITROGEN [3]: 10.33 mg/dL
- CARBON DIOXIDE [3]: 25.33 mmol/L
- CHLORIDE [3]: 97.67 MEQ/L
- CHOLESTEROL [3]: 58.67 mg/dL
- CREATINE PHOSPHOKINASE [3]: 234.67 u/L
- CREATININE [3]: 0.14 mg/dL
- GLUCOSE [3]: 154.67 mg/dL
- LACTATE DEHYDROGENASE [3]: 217 u/L
- LIPASE [3]: 9.33 u/L
- PHOSPHORUS [3]: 11.23 mg/dL
- POTASSIUM [3]: 4.62 MEQ/L
- SODIUM [3]: 138.03 MEQ/L
- TOTAL BILIRUBIN [3]: 0.33 mg/dL
- TOTAL PROTEIN [3]: 5.93 G/DL
- URIC ACID [3]: 1.6 mg/dL
